Assay results: article PMC2362153 (British Journal of Cancer, 1999)
Read-outs that look alike come from different tables or passages of the source.

Assays:
[1] = Tissue distribution of doxorubicin and metabolites in wild-type and mdr1a(-/-) mice (HPLC); conditions: 24 h after drug administration
From the text: (§1) Blank human plasma was obtained from healthy donors. […] All biological specimens were stored at -20C until analysis. […] However, […]

[2] = Urinary and faecal excretion of doxorubicin and metabolites within 96 h (metabolic cages); conditions: for Excretion in faeces / Excretion in urine: within 96 h after i.v. 5 mg kg-1 doxorubicin
Method: Drug and metabolite concentrations were determined in plasma, tissues, urine and faeces by high-performance liquid chromatography. […] The animals were housed and handled according to institutional guidelines. Food (Hope Farms, Woerden, The Netherlands) and acidified water were given ad libitum. […] Bovine serum albumin (BSA) was obtained from Organon Teknika (Boxtel, The Netherlands). All other reagents were of analytical or Lichrosolv gradient grade and were purchased from E Merck (Darmstadt, Germany). Water was purified by the Milli-Q Plus system (Millipore, Milford, USA). Blank human plasma was obtained from healthy donors. […] The excretion study was performed with two groups of six animals, whereas in the other pharmacokinetic experiments three or four animals were used per time point. Tissue and blood samples were taken at 1, 4 and 24 h after drug adminis- tration. Blood was obtained by orbital bleeding under diethyl ether anaesthesia and collected in heparinized tubes. The animals were sacrificed by cervical dislocation to collect the following tissues: brain, skeletal muscle, colon, caecum, small gut, stomach, liver (without gall bladder), kidney, lung, spleen, heart, ovary, uterus and breast. The tissues were homogenized with a Polytron tissue homogenizer (Kinematica, Littau, Switzerland) in 4% (w/v) BSA in water, resulting in final concentrations of approximately 0.05-0.2 g tissue ml-1. Additional blood samples were obtained at 5, 15, 30 and 45 min and at 2, 8, 16, 30, 40, 56 and 64 h after drug administration. Blood samples were centrifuged (10 min, 2000 g, 4C) to separate the plasma fraction, which was stored for analysis. Urine and faeces from mice kept in Ruco Type M/1 stain- less-steel metabolic cages (Valkenswaard, The Netherlands) were collected during time intervals of 0-8, 8-24, 24-48, 48-72 and 72-96 h after drug administration. Homogenization of faeces in 4% (w/v) BSA in water (0.03-0.1 g faeces ml-1) was according to the procedure described above for tissue specimens. All biological specimens were stored at -20C until analysis. […] In brief, dilutions of faeces homogenate (20-fold) and urine (100-fold) were prepared in blank human plasma, all other specimens were used without further dilution.

mdr1a transfected cells = tested on: mdr1a transfected cells; set-up: method as in Tang-Wai et al, 1995; conditions: ref Tang-Wai et al, 1995; cited from earlier work
[3] = mouse, in vivo
From the text: as §1

[4] = Plasma pharmacokinetics of doxorubicin and metabolites after i.v. bolus in wild-type and mdr1a(-/-) mice (HPLC); conditions: for half-life / concentration at 1 h / concentration at 4 h / concentration at 24 h / AUC(0-t) / clearance / Vd: female, FVB, mouse, iv; for half-life: in vivo, t1/2(), elimination half-life; for half-life / AUC(0-t) / clearance / Vd: 5 mg/kg; for concentration at 1 h / concentration at 4 h / concentration at 24 h / AUC(0-t) / clearance / Vd: plasma; for concentration at 1 h / concentration at 4 h / concentration at 24 h: 5 mg kg-1, Plasma level; for concentration at 1 h: 1 h after i.v. 5 mg kg-1 doxorubicin; for concentration at 4 h: 4 h after i.v. 5 mg kg-1 doxorubicin; for concentration at 24 h: 24 h after i.v. 5 mg kg-1 doxorubicin; for AUC(0-t): AUC(0-64), area under the plasma concentration-time curve up to 64 h; for clearance: Cl; for Vd: volume of distribution
From the text: as §1

[5] = cited from earlier work
[6] = over 48 h, ref Van Asperen et al, 1996, cited from earlier work
[7] = mdr1a(-/-) mice, i.v. bolus 5 mg kg-1
[8] = wild-type mice, i.v. bolus 5 mg kg-1

COc1cccc2c1C(=O)c1c(O)c3c(c(O)c1C2=O)C[C@@](O)(C(=O)CO)C[C@@H]3O[C@H]1C[C@H](N)[C@H](O)[C@H](C)O1 [doxorubicin]
absolute concentration in hearts of mdr1a(-/-) mice compared with wild-type [1]: more than twofold higher | dose excreted unchanged in faeces ([2]; within 96 h after administration, wild-type mice): 5% | Excretion in faeces ([2]; mdr1a(-/-) mice): 4.1 percentage of the administered dose | Excretion in urine ([2]; mdr1a(-/-) mice): 15.4 percentage of the administered dose | Excretion in faeces ([2]; wild-type mice): 5.2 percentage of the administered dose | Excretion in urine ([2]; wild-type mice): 10.9 percentage of the administered dose | resistance of mdr1a transfected cells in comparison with non-P-glycoprotein-expressing parental cells (mdr1a transfected cells): 35 fold | tolerability of dose level [3]: well tolerated | half-life [4, 7]: 24.8 h | half-life [4, 8]: 15.7 h | concentration at 1 h ([4]; mdr1a(-/-) mice): 110 nM | concentration at 1 h ([4]; wild-type mice): 130 nM | concentration at 4 h ([4]; mdr1a(-/-) mice): 66.2 nM | concentration at 4 h ([4]; wild-type mice): 70.9 nM | concentration at 24 h ([4]; mdr1a(-/-) mice): 28.2 nM | concentration at 24 h ([4]; wild-type mice): 16.3 nM | AUC(0-t) [4, 7]: 2.27 µM·h | AUC(0-t) [4, 8]: 1.82 µM·h | clearance [4, 7]: 60 mL/min/kg | clearance [4, 8]: 75 mL/min/kg | Vd [4, 7]: 128 L/kg | Vd [4, 8]: 101 L/kg | AUC, mdr1a(-/-) in comparison with wild-type mice ([4]; i.v. bolus 5 mg kg-1): 1.2 fold | Vd, mdr1a(-/-) in comparison with wild-type mice ([4]; i.v. bolus 5 mg kg-1): 1.3 fold | terminal half-life, mdr1a(-/-) in comparison with wild-type mice ([4]; i.v. bolus 5 mg kg-1): 1.6 fold | doxorubicin concentration in heart on co-administration of reversal agent ([5]; ref Bellamy et al, 1995): up to twofold higher

CC[C@]1(O)C[C@@H]2CN(CCc3c([nH]c4ccccc34)[C@@](C(=O)OC)(c3cc4c(cc3OC)N(C)[C@H]3[C@@](O)(C(=O)OC)[C@H](OC(C)=O)[C@]5(CC)C=CCN6CC[C@]43[C@@H]65)C2)C1 [vinblastine]
i.v. administered dose excreted unchanged in the faeces ([6]; mdr1a(-/-) mice): 10% | i.v. administered dose excreted unchanged in the faeces ([6]; wild-type mice): 24% | resistance of mdr1a transfected cells in comparison with non-P-glycoprotein-expressing parental cells (mdr1a transfected cells): 53 fold

cyclosporin A
mortality on co-administration with doxorubicin ([5]; non-tumour-bearing mice, ref Colombo et al, 1994, Bellamy et al, 1995, Gonzalez et al): high mortality
